As usually defined, the IC50 is the concentration needed to halve the response being measured. A word on the inhibition: it is the percentage by which the read-out fell short of the control.

The values that follow come from PMC6072853 (Frontiers in Pharmacology, 2018).

What all share (type): cell-based, human
In one assay the test system is HeLa. As to the kind of experiment: MTT antiproliferative assay, HeLa. The conditions noted are these: 72 h; for IC50: read-out: calculated IC50 value; for inhibition at 10 µM / inhibition at 30 µM: read-out: Growth inhibition (%) ± SEM. The source says:
(§1) Gynecological cancer cell lines, including ovarian (A2780), cervical (HeLa), and breast cancer cell lines (MCF7, T47D, MDA-MB-231, and MDA-MB-361) were purchased from the European Collection of Authenticated Cell Cultures (ECACC, Salisbury, United Kingdom). Additional cervical cell lines (SiHa and C33A) and a non-cancerous immortalized, mammary gland epithelial cell line (hTERT-HME1) were purchased from LGC Standards GmbH (Wesel, Germany). Non-cancerous fibroblast cells (MRC-5) were also obtained from the ECACC. All cells were cultured in minimal essential medium supplemented with 10% fetal bovine serum, 1% non-essential amino acids, and 1% antibiotic-antimycotic mixture, in humidified air containing 5% CO2 at 37°C. Immortalized hTERT-HME1 cells were maintained in serum-free mammary epithelial cell growth medium (MEGM) supplemented with insulin, human epidermal growth factor (hEGF), hydrocortisone, bovine pituitary extract, and an antibiotic-antimycotic mixture. All the medium and supplements were purchased from Lonza Group Ltd. (Basel, Switzerland).
(§2) The antiproliferative properties of the compounds were assessed by an MTT assay ([Mosmann, 1983]). Cells were seeded onto 96-well microplates at a density of 10,000 cells/well (MDA-MB-361 and C33A) or 5,000 cells/well (all other cell lines). After an overnight incubation, fresh medium containing the test compounds (at a concentration of 10 or 30 μM) was added. After incubation for 72 h at 37°C in humidified air, [3-(4,5-dimethylthiazol-2-yl)-2,5-diphenyltetrazolium bromide] (MTT) solution (5 mg/mL) was added. Purple formazan crystals were formed by the living cells during a 4 h contact period, which were assayed by spectrophotometry after having been dissolved in 100 μL DMSO. Untreated cells served as control, and cisplatin (CIS) (Ebewe Pharma GmbH, Unterach, Austria) was used as a reference compound. […] Two independent measurements were performed with five parallel wells. To present preliminary data concerning tumor selectivity of the potent compounds, the procedure was repeated on MRC-5 fibroblast and hTERT-HME1 immortalized mammary gland epithelial cells under the same experimental conditions.

For another assay, the system named is SiHa. As to the kind of experiment: MTT antiproliferative assay, SiHa. To be noted: 72 h; for inhibition at 10 µM / inhibition at 30 µM: Homo sapiens, read-out: Growth inhibition (%) ± SEM.
Description: as §1, §2
(Tetrazolium assays rely on reduction of a dye to a coloured formazan, in cell work by metabolically active cells.)

The test system of another assay is C33A. As to the kind of experiment: MTT antiproliferative assay, C33A. The conditions noted are these: 72 h; for inhibition at 10 µM / inhibition at 30 µM: Homo sapiens, C-33-A, read-out: Growth inhibition (%) ± SEM.
Description: as §1, §2

The subject of the next assay is A2780. Kind of assay: MTT antiproliferative assay, A2780. To be noted: for Growth inhibition (%) ± SEM / inhibition at 10 µM / inhibition at 30 µM: 72 h; for inhibition at 10 µM / inhibition at 30 µM: Homo sapiens, read-out: Growth inhibition (%) ± SEM.
Description: as §1, §2

For a further assay, the system named is MCF-7. As to the kind of experiment: MTT antiproliferative assay, MCF-7. The conditions noted are these: 72 h; for inhibition at 10 µM / inhibition at 30 µM: Homo sapiens, MCF7, read-out: Growth inhibition (%) ± SEM.
Description: as §1, §2

The test system of the next assay is MDA-MB-231. Kind of assay: MTT antiproliferative assay, MDA-MB-231. To be noted: for inhibition at 10 µM / inhibition at 30 µM: Homo sapiens, read-out: Growth inhibition (%) ± SEM; for inhibition at 10 µM: MDA-MB-231, 10 μM.
Description: as §1, §2

In a further assay the test system is MDA-MB-361. Kind of assay: MTT antiproliferative assay, MDA-MB-361. The conditions noted are these: for Growth inhibition (%) ± SEM / inhibition at 10 µM / inhibition at 30 µM: 72 h; for inhibition at 10 µM / inhibition at 30 µM: Homo sapiens, read-out: Growth inhibition (%) ± SEM.
Description: as §1, §2

The subject of a further assay is T47D. As to the kind of experiment: MTT antiproliferative assay, T47D. To be noted: 72 h; for inhibition at 10 µM / inhibition at 30 µM: Homo sapiens, read-out: Growth inhibition (%) ± SEM.
Description: as §1, §2

For a further assay, the system named is MRC-5. As to the kind of experiment: MTT assay, non-cancerous fibroblasts MRC-5.
Description: as §1, §2

In the next assay the test system is hTERT-HME1. Kind of assay: MTT assay, immortalized mammary gland epithelial cells hTERT-HME1. The conditions noted are these: for Growth inhibition (%) ± SEM: 72 h.
Description: as §1, §2

[1] abbreviates: read-out: calculated IC50 value.

Like-named read-outs stand apart in the source and are kept apart here.

In the case of `N.N.[Cl][Pt][Cl]` [CIS, cisplatin, reference compound], the “Growth inhibition (%) ± SEM” value in the assay on HeLa (10 μM) is 42.6 ± 2.3%; with HeLa (30 μM), 99.9 ± 0.3%; in the assay on SiHa (10 μM), 88.6 ± 0.5%; in the assay on SiHa (30 μM) it was 90.2 ± 1.8%; in the assay on C33A (10 μM) it was 83.8 ± 0.8%; with C33A (30 μM), 93.9 ± 0.6%. Besides, the “Growth inhibition (%) ± SEM” value amounted to 83.6 ± 1.2% in the assay with A2780 (A2780, 10 μM); 95.0 ± 0.3% in the assay with A2780 (A2780, 30 μM); 66.9 ± 1.8% with MCF-7 (MCF-7, 10 μM); 96.8 ± 0.4% with MCF-7 (MCF-7, 30 μM); 71.5 ± 1.2% in the assay with MDA-MB-231 (MDA-MB-231, 30 μM, 72 h); 67.5 ± 1.0% with MDA-MB-361 (MDA-MB-361, 10 μM). Further, the “Growth inhibition (%) ± SEM” value came to 87.8 ± 1.1% in the assay with MDA-MB-361 (MDA-MB-361, 30 μM); 51.0 ± 2.0% with T47D (10 μM); 55.0 ± 1.5% in the assay with T47D (30 μM); 60.3 ± 3.3% in the assay with MRC-5 (MRC-5, 10 μM, 72 h); 61.9 ± 1.0% in the assay on MRC-5 (MRC-5, 30 μM, 72 h); 97.7 ± 0.3% with hTERT-HME1 (hTERT-HME1, 10 μM). The “Growth inhibition (%) ± SEM” value in the assay with hTERT-HME1 (hTERT-HME1, 30 μM) was 99.1 ± 0.3%. For the same compound, the IC50 was 12.4 µM in the assay with HeLa; 7.84 µM with SiHa (setting [1]); 1.77 µM in the assay with C33A (setting [1]); 1.3 µM in the assay on A2780 (A2780, 72 h, read-out: calculated IC50 value); 19.1 µM in the assay on MDA-MB-231 (MDA-MB-231, 72 h, read-out: calculated IC50 value); 3.74 µM with MDA-MB-361 (MDA-MB-361, 72 h, read-out: calculated IC50 value). Also, the IC50 in the assay with T47D (setting [1]) was 9.78 µM; in the assay with MRC-5 (MRC-5, 72 h, read-out: calculated IC50 value), 6.19 µM; with hTERT-HME1 (hTERT-HME1, 72 h, read-out: calculated IC50 value) it was 2.45 µM.

In the case of `C[C@]12CC[C@H]3[C@@H](CCC4=CC(=O)CC[C@@H]43)[C@@H]1CC[C@H]2O` [Compound 2, 17α-19-nortestosterone], the inhibition at 10 µM in the assay with HeLa (Homo sapiens, 10 μM) was 28.1 ± 4%; in the assay with SiHa (10 μM), under 20%; in the assay with C33A (10 μM), under 20%; in the assay with A2780 (A2780, 10 μM), under 20%; in the assay with MCF-7 (MCF-7, 10 μM), under 20%; with MDA-MB-231 (72 h), under 20%. Further, the inhibition at 10 µM was under 20% with MDA-MB-361 (MDA-MB-361, 10 μM) and under 20% with T47D (10 μM). Moreover, the inhibition at 30 µM in the assay on HeLa (Homo sapiens, 30 μM) is 37.9 ± 3.4%; with SiHa (30 μM), under 20%; with C33A (30 μM), under 20%; in the assay with A2780 (A2780, 30 μM) it was under 20%; with MCF-7 (MCF-7, 30 μM), 27.7 ± 3.7%; in the assay on MDA-MB-231 (MDA-MB-231, 30 μM, 72 h) it was under 20%. Besides, the inhibition at 30 µM with MDA-MB-361 (MDA-MB-361, 30 μM) is under 20%; in the assay on T47D (30 μM), under 20%.

`C[C@]12CC[C@H]3[C@@H](CCC4=CC(=O)CC[C@@H]43)[C@@H]1CC[C@H]2Br` [Compound 4, 17α-bromo-19-nortestosterone]: the inhibition at 10 µM with HeLa (Homo sapiens, 10 μM) is 94.4 ± 0.7%; in the assay with SiHa (10 μM), under 20%; in the assay on C33A (10 μM), under 20%; with A2780 (A2780, 10 μM), under 20%; with MCF-7 (MCF-7, 10 μM), under 20%; in the assay on MDA-MB-231 (72 h) it was under 20%. In addition, the inhibition at 10 µM in the assay on MDA-MB-361 (MDA-MB-361, 10 μM) is under 20%; in the assay with T47D (10 μM), under 20%; in the assay with MRC-5 (Homo sapiens, MRC5, MRC-5, 10 μM, 72 h, read-out: Growth inhibition (%) ± SEM), 11.9 ± 2.3%. For the same compound, the inhibition at 30 µM in the assay with HeLa (Homo sapiens, 30 μM) was 94.1 ± 0.5%; in the assay on SiHa (30 μM), under 20%; in the assay on C33A (30 μM) it was under 20%; in the assay with A2780 (A2780, 30 μM), 54.4 ± 1.6%; with MCF-7 (MCF-7, 30 μM), under 20%; in the assay on MDA-MB-231 (MDA-MB-231, 30 μM, 72 h), under 20%. Moreover, the inhibition at 30 µM is under 20% in the assay on MDA-MB-361 (MDA-MB-361, 30 μM); under 20% in the assay with T47D (30 μM); 20.4 ± 2.1% in the assay on MRC-5 (Homo sapiens, MRC5, MRC-5, 30 μM, 72 h, read-out: Growth inhibition (%) ± SEM). In addition, in the assay with HeLa (Homo sapiens), the IC50 is 1.69 µM.
